In assay [1] the test system is wildtype Wnt signaling cascade. As to the kind of experiment: HEK293 TOP Assay (Super TopFlash luciferase reporter, Wnt-3a stimulated). The class given is cell-based. The note with it: Homo sapiens, HEK293, 16 h. In outline:
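HEK293 cells stably carrying Super TopFlash (TOP) or FOP reporter, stimulated with recombinant human Wnt-3a (2500–5 ng/ml, two-fold steps). Both lines incubated in parallel with compound from 50 μM to 15 nM (3.16-fold) in CAFTY buffer pH 7.4 with 2 mM Ca2+ and 0.01% BSA; selectivity judged TOP vs FOP.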
On the technique in general: Reporter assays use an easily measured gene product as a stand-in for the process of interest.

For assay [2], the system named is HEK293 FOP control reporter cell line. As to the kind of experiment: HEK293 FOP Assay (FOP control vector luciferase reporter). The note with it: Homo sapiens. The class given is cell-based. How it is done:
In a parallel approach, HEK293 cells were cotransfected with the FOP control vector and pcDNA3. The FOP vector is identical to the TOP construct, but it contains instead of functional TCF elements a randomized, non-functional sequence. For this transfection a stable transfected cell line was generated as well, based on selection with Geneticin (1 mg/ml).
In preparation of the assay, the two cell lines were plated 24 hrs before beginning the test at 10000 cells per well in a 384 micro titre plate (MTP) in 30 μl growth medium. […] The recombinant human Wnt-3a was thereby applied between 2500 and 5 ng/ml in two-fold dilution steps.
Selective inhibitory activity for small molecules on the wildtype Wnt pathway was determined after parallel incubation of both (TOP and FOP) HEK293 reporter cell lines with a compound dilution series from 50 μM to 15 nM in steps of 3.16-fold dilutions in CAFTY buffer (130 mM sodium chloride, 5 mM potassium chloride, 20 mM HEPES, 1 mM magnesium chloride, 5 mM sodium bicarbonate, pH 7.4) containing 2 mM Ca^2+ and 0.01% BSA.
The compounds were thereby serially prediluted in 100% DMSO and thereafter 50 fold into the CAFTY compound dilution buffer (described above).

Where [3] appears, read: HEK293 TOP reporter cell line, Wnt-3a at EC50, 16 hours incubation, compound dilution series 50 μM to 15 nM.
Where [4] appears, read: HEK293 FOP control reporter cell line, 16 hours incubation, compound dilution series 50 μM to 15 nM.

From patent US9884063B2, “Amido-substituted azole compounds” (Bayer Pharma Aktiengesellschaft, priority 2014, dated 2018) come the findings set out here.

The term IC50 denotes the concentration needed to halve the response being measured.

The structures appear in SMILES notation.

Regarding `CN1CCN(CC(C)(C)NC(=O)c2[nH]cnc2C(=O)Nc2ccc(NC(=O)c3ccccc3Cl)cc2)CC1` [Example 203, N^4-{4-[(2-chlorobenzoyl)amino]phenyl}-N^5-[2-methyl-1-(4-methylpiperazin-1-yl)propan-2-yl]-1H-imidazole-4,5-dicarboxamide], the values for the IC50 in assay [1] (setting [3]) and in assay [2] (setting [4]) were 3.05 µM and 28 µM, respectively.

In the case of `COC(=O)c1nc[nH]c1C(=O)Nc1ccc(NC(=O)c2ccc(F)cc2Cl)c(C)c1` [Example 83, methyl 5-({4-[(2-chloro-4-fluorobenzoyl)amino]-3-methylphenyl}carbamoyl)-1H-imidazole-4-carboxylate], the IC50 in assay [1] (setting [3]) worked out at 0.39 µM; in assay [2] (setting [4]), 29 µM.

For `CN1CCN(CC(C)(C)NC(=O)c2[nH]cnc2C(=O)Nc2ccc(NC(=O)c3ccc(F)cc3Cl)cc2)CC1` [Example 194, N^4-{4-[(2-chloro-4-fluorobenzoyl)amino]phenyl}-N^5-[2-methyl-1-(4-methylpiperazin-1-yl)propan-2-yl]-1H-imidazole-4,5-dicarboxamide], the values for the IC50 in assay [1] (setting [3]) and in assay [2] (setting [4]) were 0.41 µM and 2.3 µM, respectively.

Take `CC(C)[C@@H](C)NC(=O)c1[nH]cnc1C(=O)Nc1ccc(NC(=O)c2ccc(F)cc2)cc1` [Example 135, N^4-{4-[(4-fluorobenzoyl)amino]phenyl}-N^5-[(2R)-3-methylbutan-2-yl]-1H-imidazole-4,5-dicarboxamide]: the IC50 is 7.25 µM in assay [1] (setting [3]) and 22 µM in assay [2] (setting [4]).

On to `CC1CCN(CC(C)(C)NC(=O)c2[nH]cnc2C(=O)Nc2ccc(NC(=O)c3ccc(F)cc3)cc2)CC1` [Example 175, N^4-{4-[(4-fluorobenzoyl)amino]phenyl}-N^5-[2-methyl-1-(4-methylpiperidin-1-yl)propan-2-yl]-1H-imidazole-4,5-dicarboxamide], for which the concentration for half-maximal inhibition (IC50) in assay [1] (setting [3]) stood at 3.5 µM; in assay [2] (setting [4]) it was 27 µM.

For the compound `CNC(=O)c1nc[nH]c1C(=O)Nc1ccc(NC(=O)c2ccc(F)cc2)c(F)c1` [Example 76, N^5-{3-fluoro-4-[(4-fluorobenzoyl)amino]phenyl}-N^4-methyl-1H-imidazole-4,5-dicarboxamide], the IC50 in assay [1] (setting [3]) stood at 12 µM; in assay [2] (setting [4]) it was 7.4 µM.

As to `O=C(Nc1ccc(NC(=O)c2nc[nH]c2C(=O)NCCN2CCCC(O)C2)cc1)c1ccc(F)cc1` (stereo not shown) [Example 167, N^4-{4-[(4-fluorobenzoyl)amino]phenyl}-N^5-[2-(3-hydroxypiperidin-1-yl)ethyl]-1H-imidazole-4,5-dicarboxamide], the IC50 in assay [1] (setting [3]) came to 1.45 µM; in assay [2] (setting [4]), 44 µM.

As for `CNC(=O)c1nc[nH]c1C(=O)Nc1ccc(NC(=O)c2ccc(OC)c(OC)c2OC)cc1` [Example 40, N^4-methyl-N^5-{4-[(2,3,4-trimethoxybenzoyl)amino]phenyl}-1H-imidazole-4,5-dicarboxamide], the IC50 in assay [1] (setting [3]) was 12 µM; in assay [1] (HEK293 TOP reporter cells, Wnt3a at EC50, 16 hours, luciferase), 12 µM; in assay [2] (HEK293 FOP control reporter cells, 16 hours, luciferase, dilution series from 50 μM), ≥ 50 µM.

With `CNC(=O)c1nc[nH]c1C(=O)Nc1ccc(NC(=O)c2cccc(Cl)c2)cc1` [Example 325, N^5-{4-[(3-chlorobenzoyl)amino]phenyl}-N^4-methyl-1H-imidazole-4,5-dicarboxamide], the IC50 in assay [1] (setting [3]) was determined as 4.9 µM; in assay [2] (setting [4]), 10 µM.

Take `O=C(Nc1ccc(NC(=O)c2nc[nH]c2C(=O)NCCCN2CCCC2=O)cc1)c1ccc(F)cc1Cl` [Example 299, N^4-{4-[(2-chloro-4-fluorobenzoyl)amino]phenyl}-N^5-[3-(2-oxopyrrolidin-1-yl)-propyl]-1H-imidazole-4,5-dicarboxamide]: the IC50 in assay [1] (setting [3]) stood at 0.74 µM; in assay [2] (setting [4]), 43 µM.

With `CNC(=O)c1nc[nH]c1C(=O)Nc1ccc(NC(=O)c2cccc(Cl)c2C)cc1` [Example 341, N^5-{4-[(3-chloro-2-methylbenzoyl)amino]phenyl}-N^4-methyl-1H-imidazole-4,5-dicarboxamide], the IC50 in assay [1] (setting [3]) worked out at 2.65 µM; in assay [2] (setting [4]), 45 µM.

As to `CC1CCN(CC(C)(C)NC(=O)c2[nH]cnc2C(=O)Nc2ccc(NC(=O)c3ccccc3Cl)cc2)CC1` [Example 158, N^4-{4-[(2-chlorobenzoyl)amino]phenyl}-N^5-[2-methyl-1-(4-methylpiperidin-1-yl)propan-2-yl]-1H-imidazole-4,5-dicarboxamide], the 50% inhibitory concentration (IC50) in assay [1] (setting [3]) was 1.2 µM; in assay [2] (setting [4]), 29 µM.

Take `CC(CNC(=O)c1[nH]cnc1C(=O)Nc1ccc(NC(=O)c2ccc(F)cc2)cc1)N1CCCCC1` (stereo not shown) [Example 183, N^4-{4-[(4-fluorobenzoyl)amino]phenyl}-N^5-[2-(piperidin-1-yl)propyl]-1H-imidazole-4,5-dicarboxamide]: the figures for the 50% inhibitory concentration (IC50) in assay [1] (setting [3]) and in assay [2] (setting [4]) were 0.68 µM and 28 µM, respectively.

On to `CN1CCN(NC(=O)c2[nH]cnc2C(=O)Nc2ccc(NC(=O)c3ccc(F)cc3Cl)cc2)CC1` [Example 177, N^4-{4-[(2-chloro-4-fluorobenzoyl)amino]phenyl}-N^5-(4-methylpiperazin-1-yl)-1H-imidazole-4,5-dicarboxamide], for which the IC50 in assay [1] (setting [3]) was 0.63 µM; in assay [2] (setting [4]) it was 17 µM.

For `CC(C)(C)NC(=O)c1[nH]cnc1C(=O)Nc1ccc(NC(=O)c2ccc(F)cc2)cc1` [Example 129, N^5-tert-butyl-N^4-{4-[(4-fluorobenzoyl)amino]phenyl}-1H-imidazole-4,5-dicarboxamide], the values for the IC50 in assay [1] (setting [3]) and in assay [2] (setting [4]) were 6.75 µM and 15 µM, respectively.

As for `CN1CCN(C(C)(C)CNC(=O)c2[nH]cnc2C(=O)Nc2ccc(NC(=O)c3ccc(F)cc3)cc2)CC1` [Example 188, N^4-{4-[(4-fluorobenzoyl)amino]phenyl}-N^5-[2-methyl-2-(4-methylpiperazin-1-yl)propyl]-1H-imidazole-4,5-dicarboxamide], the IC50 in assay [1] (setting [3]) is 5.9 µM; in assay [2] (setting [4]) it was 15 µM.

For `CCN(CC)CCCC(C)NC(=O)c1nc[nH]c1C(=O)Nc1ccc(NC(=O)c2ccc(F)cc2Cl)cc1` (stereo not shown) [Example 380, N^5-{4-[(2-chloro-4-fluorobenzoyl)amino]phenyl}-N^4-[5-(diethylamino)pentan-2-yl]-1H-imidazole-4,5-dicarboxamide], the 50% inhibitory concentration (IC50) in assay [1] (setting [3]) is 0.47 µM; in assay [2] (setting [4]), 24 µM.

For the compound `CNC(=O)c1nc[nH]c1C(=O)Nc1ccc(NC(=O)c2ccccc2C(F)(F)F)cc1` [Example 58, N^4-methyl-N^5-(4-{[2-(trifluoromethyl)benzoyl]amino}phenyl)-1H-imidazole-4,5-dicarboxamide], the figures for the half-inhibitory concentration (IC50) in assay [1] (setting [3]) and in assay [2] (setting [4]) were 3.35 µM and 29 µM, respectively.

`CNC(=O)c1nc[nH]c1C(=O)Nc1ccc(NC(=O)c2cccc(C(F)(F)F)c2)cc1` [Example 314, N^4-methyl-N^5-(4-{[3-(trifluoromethyl)benzoyl]amino}phenyl)-1H-imidazole-4,5-dicarboxamide]: the concentration for half-maximal inhibition (IC50) came out at 6.9 µM in assay [1] (setting [3]) and 24 µM in assay [2] (setting [4]).

With `O=C(Nc1ccc(NC(=O)c2nc[nH]c2C(=O)NCCN2CCCC(O)C2)cc1)c1ccccc1Cl` (stereo not shown) [Example 152, N^4-{4-[(2-chlorobenzoyl)amino]phenyl}-N^5-{2-[3-hydroxypiperidin-1-yl]ethyl}-1H-imidazole-4,5-dicarboxamide], the IC50 is 0.46 µM in assay [1] (setting [3]) and 30 µM in assay [2] (setting [4]).

On to `O=C(Nc1ccc(NC(=O)c2nc[nH]c2C(=O)NCCCN2CCC(O)CC2)cc1)c1ccc(F)cc1Cl` [Example 275, N^4-{4-[(2-chloro-4-fluorobenzoyl)amino]phenyl}-N^5-[3-(4-hydroxypiperidin-1-yl)propyl]-1H-imidazole-4,5-dicarboxamide], for which the results for the IC50 in assay [1] (setting [3]) and in assay [2] (setting [4]) were 0.47 µM and 9.6 µM, respectively.

With `CNC(=O)c1nc[nH]c1C(=O)Nc1ccc(NC(=O)c2ccccc2Cl)c(C)c1` [Example 87, N^5-{4-[(2-chlorobenzoyl)amino]-3-methylphenyl}-N^4-methyl-1H-imidazole-4,5-dicarboxamide], the IC50 in assay [1] (setting [3]) was determined as 1.25 µM; in assay [2] (setting [4]), 28 µM.

Consider `COc1cc(NC(=O)c2[nH]cnc2C(=O)NCCN(C)C)ccc1NC(=O)c1ccc(F)cc1` [Example 104, N^4-[2-(dimethylamino)ethyl]-N^5-{4-[(4-fluorobenzoyl)amino]-3-methoxyphenyl}-1H-imidazole-4,5-dicarboxamide], for which the midpoint of inhibition in assay [1] (setting [3]), the IC50, lay at 7.2 µM.

On to `CNC(=O)c1nc[nH]c1C(=O)Nc1ccc(NC(=O)c2c(Cl)cc(Cl)cc2Cl)cc1` [Example 59, N^4-methyl-N^5-{4-[(2,4,6-trichlorobenzoyl)amino]phenyl}-1H-imidazole-4,5-dicarboxamide], for which the IC50 in assay [1] (setting [3]) worked out at 6.58 µM.

As to `CNC(=O)c1nc[nH]c1C(=O)Nc1ccc(NC(=O)c2ccc(F)cc2)c(C)c1` [Example 91, N^5-{4-[(4-fluorobenzoyl)amino]-3-methylphenyl}-N^4-methyl-1H-imidazole-4,5-dicarboxamide], in assay [1] (setting [3]), the IC50 was determined as 44.5 µM.

Take `CNC(=O)c1nc[nH]c1C(=O)Nc1ccc(NC(=O)c2ccc(C)c(F)c2)cc1` [Example 328, N^5-{4-[(3-fluoro-4-methylbenzoyl)amino]phenyl}-N^4-methyl-1H-imidazole-4,5-dicarboxamide]: in assay [1] (setting [3]), the midpoint of inhibition, the IC50, lay at 5.25 µM.
